Values quoted from earlier work, collected in article PMC2234480 (The Journal of General Physiology, 2003).

Tested on: CLC-0
Details: ref Pusch et al., 2001

affinity for closed channels (model from macroscopic and single-channel analysis): submillimolar affinity
Compound: CCC(Oc1ccc(Cl)cc1)C(=O)O (centres unmarked) [CPB, p-chlorophenoxy-butyric acid]
relief of block at positive voltages (5 mM CPB, V > 40 mV): complete unblock
